Key:
[1] = tested on: HCT-116; experiment: Cytotoxicity against human HCT116 cells; type: functional, cell-based
[2] = molecular target: T1, Dual specificity protein kinase TTK (Homo sapiens, UniProt P33981); experiment: Inhibition of full-length Mps1 kinase (unknown origin)
T1 sequence (P33981 whole entry): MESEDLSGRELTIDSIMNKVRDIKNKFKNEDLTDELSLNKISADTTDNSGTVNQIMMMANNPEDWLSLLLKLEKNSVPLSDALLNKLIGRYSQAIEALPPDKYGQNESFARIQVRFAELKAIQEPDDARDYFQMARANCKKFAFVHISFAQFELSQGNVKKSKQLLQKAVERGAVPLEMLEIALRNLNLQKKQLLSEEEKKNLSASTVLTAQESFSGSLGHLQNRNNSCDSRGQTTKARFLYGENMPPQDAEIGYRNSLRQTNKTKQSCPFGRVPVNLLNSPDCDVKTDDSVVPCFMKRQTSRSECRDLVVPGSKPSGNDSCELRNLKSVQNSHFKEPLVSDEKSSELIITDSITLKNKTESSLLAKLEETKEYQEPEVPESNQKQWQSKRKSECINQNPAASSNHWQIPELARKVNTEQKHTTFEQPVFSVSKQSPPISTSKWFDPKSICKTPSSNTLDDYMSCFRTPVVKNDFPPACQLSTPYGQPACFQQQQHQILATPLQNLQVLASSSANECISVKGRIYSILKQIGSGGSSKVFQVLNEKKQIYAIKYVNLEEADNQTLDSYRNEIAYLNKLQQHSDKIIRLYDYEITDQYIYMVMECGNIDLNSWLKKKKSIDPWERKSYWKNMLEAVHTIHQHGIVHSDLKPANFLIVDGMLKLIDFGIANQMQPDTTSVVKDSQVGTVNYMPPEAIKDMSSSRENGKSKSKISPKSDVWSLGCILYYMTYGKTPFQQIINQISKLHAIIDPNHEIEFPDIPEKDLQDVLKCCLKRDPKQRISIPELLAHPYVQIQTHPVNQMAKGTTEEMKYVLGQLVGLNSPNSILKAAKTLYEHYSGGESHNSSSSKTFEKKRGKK

| SMILES | IC50 [2] [nM] | IC50 [1] [nM] |
| --- | --- | --- |
| Cc1cc(N2CCOCC2)ccc1Nc1nc(NC2CCCCC2)c2nc[nH]c2n1 | – | 23 |
| COc1cc(N2CCOCC2)ccc1Nc1ncc2ccc(-c3ccccc3)cc2n1 | > 100 | – |
| COc1cc(N2CCN(S(C)(=O)=O)CC2)ccc1Nc1ncc(C)c(N(C)C2CCCCC2)n1 | > 100 | – |
| COc1cc(N2CCOCC2)ccc1Nc1ncc2ccn(C3CCCCC3)c2n1 | 46 | 7500 |
| Cc1cc(N2CCOCC2)ccc1Nc1ncc2ccn(C3CCCCC3)c2n1 | 22 | 8600 |
| COc1cc(N2CCN(S(C)(=O)=O)CC2)ccc1Nc1ncc2ccn(C3CCCCC3)c2n1 | 20 | 750 |
| COc1cc(N2CCN(S(C)(=O)=O)CC2)ccc1Nc1ncc2ccn(-c3ccccc3)c2n1 | > 100 | – |
| COc1cc(N2CCOCC2)ccc1Nc1ncc2cccc(-c3ccccc3)c2n1 | 12 | 850 |
| COc1cc(N2CCOCC2)ccc1Nc1ncc2cccc(NC3CCCCC3)c2n1 | 9 | 6320 |
| COc1cc(N2CCN(S(C)(=O)=O)CC2)ccc1Nc1ncc2cccc(-c3ccccc3)c2n1 | 5 | 1740 |
| COc1cc(N2CCN(S(C)(=O)=O)CC2)ccc1Nc1ncc2cccc(-c3cccnc3)c2n1 | 8 | 1580 |
| COc1cc(N2CCN(S(C)(=O)=O)CC2)ccc1Nc1ncc2cccc(NC3CCCCC3)c2n1 | 2 | 810 |

Now from value to compound, other results behind:

| IC50 [2] [nM] | SMILES | IC50 [1] [nM] |
| --- | --- | --- |
| > 100 | COc1cc(N2CCN(S(C)(=O)=O)CC2)ccc1Nc1nccc(NC2CCCCC2)n1 | – |
| 35 | COc1cc(N2CCN(S(C)(=O)=O)CC2)ccc1Nc1nccc(N(C)C2CCCCC2)n1 | 2000 |
| 28 | COc1cc(N2CCN(S(C)(=O)=O)CC2)ccc1Nc1ncc(C)c(NC2CCCCC2)n1 | 1500 |
| 32 | COc1cc(N2CCN(S(C)(=O)=O)CC2)ccc1Nc1ncc2ccn(-c3ccccn3)c2n1 | 10000 |
| > 100 | COc1cc(N2CCN(S(C)(=O)=O)CC2)ccc1Nc1ncc2ccn(-c3cccnc3)c2n1 | – |
| > 100 | COc1cc(N2CCOCC2)ccc1Nc1ncc2ccc(NC3CCCCC3)cc2n1 | – |

— ChEMBL document CHEMBL3091390, “Novel Mps1 kinase inhibitors: from purine to pyrrolopyrimidine and quinazoline leads” (Bioorg Med Chem Lett, 2013)
